# Measured values as given in patent publication US20240279232A1, “USE OF SUBSTITUTED 5-(4-METHYL-6-PHENYL-4H-BENZO[F]IMIDAZO[1,5-A][1,4] DIAZEPIN-3-YL)-1,2,4-O[…] THE TREATMENT OF INFLAMMATORY CONDITIONS” (priority 2021, published 2024).
# Experiments:
# [1] = test system: RAW macrophages; assay: NO production (Griess assay), LPS/IFNγ-activated RAW264.7 macrophages; type: cell-based, mouse; settings: for Inhibition of NO production (%) RAW macrophages 10 μM: 24 hours, 1 μM GABA, LPS/IFNγ; for inhibition at 10 µM: Mus musculus, Macrophage, 24 h
# [2] = test system: Mouse microglia; assay: NO production (Griess assay), LPS/IFNγ-activated mouse microglia; type: cell-based; settings: for Inhibition of NO production (%) Mouse microglia 10 μM: 24 hours, 1 μM GABA, LPS/IFNγ; for inhibition at 10 µM: Mus musculus, Microglia, 24 h
# [3] = test system: RAW macrophages; assay: Cell viability (CellTiter-Glo), RAW macrophages; type: cell-based, mouse; settings: CellTiter-Glo
# [4] = test system: Mouse microglia; assay: Cell viability (CellTiter-Glo), mouse microglia; type: cell-based; settings: 50 μM, CellTiter-Glo
# Summary of the method: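 Mouse microglia (1×10^6 cells/mL) activated with 50 ng/ml LPS plus 150 U/mL IFNγ, incubated with compounds ~24 h at 37° C. Viability of remaining cells read by CellTiter-Glo luminescence after supernatant removal for Griess NO assay; […].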
# [5] = test system: HEK293; assay: Viability assay (CellTiter-Glo), HEK293; type: cell-based, human; settings: for Cell viability (%) HEK293 120 μM: CellTiter-Glo
# Procedure: (§1) The screen identified several compounds that reduced NO in activated microglia and macrophages. The tested compounds included achiral and chiral imidazodiazepines and benzodiazepines. In general, microglia were more sensitive to compound treatment with more pronounced reduction of NO than macrophages. […] Cell viability assays with HEK293 (kidney) and HepG2 (liver) cells were conducted in a concentration dependent manner. A limited number of compounds, such as GL-III-63, GL-III-76A, and GL-III-77, were toxic at 120 μM.
# (§2) Viability assay. Human liver hepatocellular carcinoma (HEPG2) and human embryonic kidney 293T (HEK293T) cell lines were purchased (ATCC) and cultured in 75 cm^2 flasks (CellStar). Cells were grown in DMEM/High Glucose (Hyclone, #SH3024301) media to which non-essential amino acids (Hyclone, #SH30238.01), 10 mM HEPES (Hyclone, #SH302237.01), 5×10^6 units of penicillin and streptomycin (Hyclone, #SV30010), and 10% of heat inactivated fetal bovine serum (Gibco, #10082147) were added. Cells were harvested using 0.05% Trypsin (Hyclone, #SH3023601), washed with PBS, and dispensed into sterile white, optical bottom 384-well plates (NUNC, #142762). After three hours, small molecule DMSO solutions were transferred with a Tecan Freedom EVO liquid handling system equipped with a 100 nL pin tool (V&P Scientific). The controls were 3-dibutylamino-1-(4-hexyl-phenyl)-propan-1-one (25 mM in DMSO, positive control) and DMSO (negative control). The cells were incubated for 48 hours followed by the addition of CellTiter-Glo™, a luminescence-based cell viability assay (Promega, Madison, WI). All luminescence readings were performed on a Tecan Infinite M1000 plate reader. The assay was carried out in quadruplet with two independent runs. The data were analyzed by nonlinear regression.
# [6] = test system: HEPG2; assay: Viability assay (CellTiter-Glo), HEPG2; type: cell-based, human; settings: for Cell viability (%) HEPG2 120 μM: CellTiter-Glo
# Procedure: as §1, §2
SMILES,Inhibition of NO production (%) RAW macrophages 10 μM [1] [%],Inhibition of NO production (%) Mouse microglia 10 μM [2] [%],Cell viability (%) RAW macrophages 50 μM [3] [%],Cell viability (%) Mouse microglia 50 μM [4] [%],Cell viability (%) HEK293 120 μM [5] [%],Cell viability (%) HEPG2 120 μM [6] [%],"toxicity at 120 μM (in words) ([5]; HEK293, 120 μM)","toxicity at 120 μM (in words) ([6]; HepG2, 120 μM)",inhibition at 10 µM [1] [%],inhibition at 10 µM [2] [%]
C#Cc1ccc2c(c1)C(c1ccccc1F)=NCc1c(C(=O)OCCCO)ncn1-2 [GL-II-80],5 ± 3,38 ± 8,100 ± 2,85 ± 1,76 ± 8,100 ± 9,–,–,–,–
C#Cc1ccc2c(c1)C(c1ccccc1F)=NC(C)C(=O)N2C (centres unmarked) [GL-III-24],68 ± 8,67 ± 12,100 ± 12,98 ± 5,78 ± 6,91 ± 12,–,–,–,–
C#Cc1ccc2c(c1)C(c1ccccc1F)=NC(C)C(=O)N2C (centres unmarked) [GL-III-25],38 ± 9,25 ± 10,100 ± 8,98 ± 4,93 ± 4,100 ± 5,–,–,–,–
C#Cc1ccc2c(c1)C(c1ccccn1)=N[C@H](C)C(=O)N2 [GL-III-27],1 ± 3,29 ± 8,100 ± 4,86 ± 8,91 ± 2,77 ± 7,–,–,–,–
CC1N=C(c2ccccc2F)c2cc(Br)ccc2-n2cnc(C=O)c21 (centres unmarked) [GL-III-35],0 ± 4,17 ± 7,100 ± 2,100 ± 8,79 ± 8,98 ± 8,–,–,–,–
CC1N=C(c2ccccc2F)c2cc(Cl)ccc2NC1=O (centres unmarked) [GL-III-52],2 ± 2,57 ± 11,97 ± 8,85 ± 8,73 ± 8,81 ± 9,–,–,–,–
CCOC(=O)c1ncn2c1[C@@H](C)N=C(c1ccccc1F)c1cc(Cl)ccc1-2 [GL-III-53],3 ± 2,85 ± 14,97 ± 7,72 ± 7,47 ± 10,94 ± 10,–,–,–,–
C#Cc1ccc2c(c1)C(c1ccccc1)=NCC(=O)N2 [GL-III-59],8 ± 1,43 ± 7,100 ± 3,96 ± 4,100 ± 4,100 ± 2,–,–,–,–
CCNC(=O)c1ncn2c1[C@@H](C)N=C(c1ccccc1F)c1cc(Br)ccc1-2 [GL-III-67],4 ± 2,33 ± 1,100 ± 7,85 ± 10,66 ± 6,100 ± 9,–,–,–,–
CC1N=C(c2ccccc2F)c2cc(C#C[Si](C)(C)C)ccc2-n2cnc(-c3cnco3)c21 (centres unmarked) [GL-III-72],57 ± 7,21 ± 7,77 ± 4,100 ± 10,64 ± 8,100 ± 3,–,–,–,–
CC1N=C(c2ccccc2F)c2cc(Br)ccc2-n2cnc(C=O)c21 (centres unmarked) [GL-III-75],3 ± 5,44 ± 2,100 ± 2,87 ± 7,73 ± 2,74 ± 6,–,–,–,–
CC1N=C(c2ccccc2F)c2cc(C#C[Si](C)(C)C)ccc2-n2cnc(-c3cnco3)c21 (centres unmarked) [GL-III-77],29 ± 2,31 ± 2,85 ± 3,98 ± 4,0 ± 2,0 ± 4,toxic,toxic,–,–
C#Cc1ccc2c(c1)C(c1ccccc1F)=NC(C)c1c(C(=S)NC)ncn1-2 (centres unmarked) [GL-III-84],10 ± 5,32 ± 4,100 ± 12,96 ± 8,64 ± 5,100 ± 10,–,–,–,–
C#Cc1ccc2c(c1)C(c1ccccc1F)=NC(C)c1c(C(=S)N(C)C)ncn1-2 (centres unmarked) [GL-III-85],0 ± 2,34 ± 8,100 ± 10,84 ± 12,70 ± 12,100 ± 11,–,–,–,–
C#Cc1ccc2c(c1)C(c1ccccc1F)=NC(C)c1c(C(=S)NCC)ncn1-2 (centres unmarked) [GL-III-86],7 ± 4,39 ± 7,100 ± 14,99 ± 15,66 ± 10,100 ± 8,–,–,–,–
C#Cc1ccc2c(c1)C(c1ccccc1F)=NC(C)c1c(C(=S)NC3CC3)ncn1-2 (centres unmarked) [GL-III-87],0 ± 1,23 ± 7,100 ± 7,100 ± 2,90 ± 10,100 ± 5,–,–,–,–
C#Cc1ccc2c(c1)C(c1ccccn1)=N[C@H](C)c1c(-c3nc(CC)no3)ncn1-2 [GL-III-97],6 ± 1,11 ± 6,98 ± 3,100 ± 4,54 ± 9,100 ± 12,–,–,–,–
"CCc1noc(-c2ncn3c2[C@@H](C)N=C(c2ccccc2F)c2cc(Br)ccc2-3)n1 [GL-III-98, (R)-5-(8-Bromo-6-(2-fluorophenyl)-4-methyl-4H-benzo[f]imidazo[1,5-a][1,4]diazepin-3-yl)-3-ethyl-1,2,4-oxadiazole]",–,–,100 ± 11,83 ± 6,42 ± 8,56 ± 5,–,–,1 ± 4,75 ± 9
CCc1noc(-c2ncn3c2CN=C(c2ccccn2)c2cc(Br)ccc2-3)n1 [GL-III-99],19 ± 3,49 ± 5,100 ± 9,95 ± 9,87 ± 11,93 ± 7,–,–,–,–
"CC(C)c1noc(-c2ncn3c2[C@@H](C)N=C(c2ccccc2F)c2cc(Br)ccc2-3)n1 [GL-IV-01, (R)-5-(8-Bromo-6-(2-fluorophenyl)-4-methyl-4H-benzo[f]imidazo[1,5-a][1,4]diazepin-3-yl)-3-isopropyl-1,2,4-oxadiazole]",–,–,100 ± 9,100 ± 9,72 ± 8,100 ± 9,–,–,17 ± 7,56 ± 11
"CC(C)c1noc(-c2ncn3c2[C@@H](C)N=C(c2ccccc2F)c2cc(C4CC4)ccc2-3)n1 [GL-IV-04, (R)-5-(8-Cyclopropyl-6-(2-fluorophenyl)-4-methyl-4H-benzo[f]imidazo[1,5-a][1,4]diazepin-3-yl)-3-isoproyl-1,2,4-oxadiazole]",–,–,100 ± 7,86 ± 6,71 ± 6,100 ± 6,–,–,11 ± 2,62 ± 8
